What is called IC50 is the concentration that inhibits the measured activity by half.

This experiment deals with MKN1 cells or H358. The experiment in a line: pERK inhibition in-cell western. Format: cell-based. The settings on record: MKN1 or H358 cells (cell line not given), 1 hour with compound, GAPDH normalized. How it is done:
This Example illustrates that exemplary compounds of the present invention prevent KRas-mediated GTP nucleotide exchange mediated by SOS1 to inhibit KRas activity thereby inhibiting the generation of the downstream effector pERK. MKN1 cells (15,000/w) or H358 (30,000/w) were seeded in a black clear flat bottom 96-well cell culture plate (Corning, #3904) and incubated at 37° C. overnight. Assay day 1, cells were dosed with compounds of Formula (I) with a 10 μm starting concentration and serially diluted 3× for a total of 9 concentrations. The cells were incubated for 1 hour with the compounds solubilized in DMSO at 37° C. Cells were immediately fixed by adding 50 μL of 4% formaldehyde to all wells in a fume hood and the plates were incubated for 20 minutes at room temperature. The formaldehyde was discarded from the plates and 150 μL of ice-cold methanol was added to permeabilize the cells for 10 minutes at −20° C. The methanol was discarded from each of the plates and any liquid remaining in the plate by tapping the plate against paper towels. Cells were then blocked with 150 μL of Odyssey blocking buffer (LI-COR Biosciences #927-50010) using 0.05% Tween for 1 hour at room temperature on a shaker. […] The IC50 values were then calculated with the Graph pad Prism software.

Turning to `CNCc1ccccc1-c1csc([C@@H](C)Nc2ncc(C#N)c3cc(OC)c(OC)cc23)c1` [Example 1-1, (R)-6,7-dimethoxy-1-((1-(4-(2-((methylamino)methyl)phenyl)thiophen-2-yl)ethyl)amino)isoquinoline-4-carbonitrile], the concentration for half-maximal inhibition (IC50) came out at 2050 nM.
